Reference: the supplement of paper PMC8671470

Assays:
Settings in all cases: 72 h
KU-812 [1] = tested on: KU-812
Procedure, shortened: (§1)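 For the IC50, dose–response curves were fitted with a log-logistic model. The data came from fifteen myeloid leukaemia cell lines grown in RPMI 1640 at densities in the linear growth range and incubated in 384-well plates for 72 h at 37 °C under 5% CO2. Doses were five tenfold steps from 1 to 10,000 nM in duplicate, and luminescent ATP viability was normalised to vehicle and to a positive control at 10 µM before four-parameter fitting.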

NOMO-1 [2] = tested on: NOMO-1
Procedure, shortened: as §1

MV4-11 [3] = tested on: MV4-11
Procedure, shortened: as §1

K-562 [4] = tested on: K-562
Procedure, shortened: as §1

Mono-Mac-6 [5] = tested on: Mono-Mac-6
Procedure, shortened: as §1

HL-60 [6] = experiment: cell viability (% survival relative to DMSO control); higher = less cytotoxic
Procedure, shortened: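 A rescreen of the full library used HL-60 cells in RPMI 1640 with 10% FBS on 384-well plates, run in duplicate at five tenfold concentrations (1–10,000 nM). Each screen included DMSO or 100 nM of one of three metabolic inhibitors and ran 72 h at 37 °C, 5% CO2. CellTiter-Glo viability was scaled between DMSO and 10 μM proteasome-inhibitor wells. Any area under the curve comes from four-parameter log-logistic fits with drc and PharmacoGx.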

KU-812 [7] = experiment: cell viability (% survival relative to DMSO control, bortezomib = 0%); higher = less cytotoxic
Procedure, shortened: (§2)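 Fifteen myeloid leukaemia cell lines (10 AML, 5 CML) were seeded at a density titrated to the linear growth range into 384-well plates pre-printed with compounds at 1, 10, 100, 1000 or 10000 nM in duplicate. Plates were incubated for 72 h at 37 °C with 5% CO2. Viability was then read by CellTiter-Glo luminescence. Each value is percent survival averaged over the duplicates, with vehicle set to 100% and a 10 µM positive control to 0%.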

ML-2 = experiment: as above
Procedure, shortened: as §2

NOMO-1 [8] = experiment: as above
Procedure, shortened: as §2

KG-1 = experiment: as above
Procedure, shortened: as §2

MOLM-13 = experiment: as above
Procedure, shortened: as §2

HL-60 [9] = experiment: as above
Procedure, shortened: as §2

MV4-11 [10] = experiment: as above
Procedure, shortened: as §2

K-562 [11] = experiment: as above
Procedure, shortened: as §2

KCL-22 = experiment: as above
Procedure, shortened: as §2

BV-173 = experiment: as above
Procedure, shortened: as §2

HEL = experiment: as above
Procedure, shortened: as §2

THP-1 = experiment: as above
Procedure, shortened: as §2

Mono-Mac-6 [12] = experiment: as above
Procedure, shortened: as §2

LAMA-84 = experiment: as above
Procedure, shortened: as §2

SHI-1 = experiment: as above
Procedure, shortened: as §2

N#Cc1ccc(N(Cc2ccc(Br)cc2)n2cnnc2)cc1 [YM511]
Settings | IC50 (cell viability) [nM]
K-562 [4] | > 10000
KU-812 [1] | > 10000
MV4-11 [3] | > 10000
Mono-Mac-6 [5] | > 10000
NOMO-1 [2] | > 10000

cell viability [%], HL-60 [6]
Settings | 0.001 µM | 0.01 µM | 0.1 µM | 1 µM | 10 µM
co-treatment: AZD3965 100 nM | 83.2 | 106 | 102 | 95.3 | 96.88
co-treatment: DMSO vehicle | 96.8 | 102 | 101.39 | 101 | 104
co-treatment: GSK2194069 100 nM | 96.8 | 81 | 105 | 97.49 | 102
co-treatment: pictilisib 100 nM | 88.1 | 79.9 | 99.6 | 92.9 | 95.3

cell viability [%]
Settings | 1 nM | 10 nM | 100 nM | 1000 nM | 10000 nM
BV-173 | 92 | 95.3 | 101 | 107 | 100
HEL | 113 | 104 | 97.7 | 118 | 104
HL-60 [9] | 104 | 76.2 | 102 | 117 | 101
K-562 [11] | 107 | 104 | 97 | 115 | 99.3
KCL-22 | 111 | 97.9 | 106 | 102 | 99.6
KG-1 | 99.3 | 105 | 90.2 | 118 | 92.1
KU-812 [7] | 95.9 | 99.6 | 89.3 | 102 | 92.7
LAMA-84 | 106 | 100 | 93.4 | 101 | 103
ML-2 | 105 | 108 | 106 | 107 | 98.5
MOLM-13 | 131 | 99.5 | 91.6 | 105 | 94.5
MV4-11 [10] | 98.9 | 93.6 | 115 | 106 | 98.9
Mono-Mac-6 [12] | 110 | 102 | 97 | 106 | 93.9
NOMO-1 [8] | 103 | 104 | 98.4 | 104 | 96.2
SHI-1 | 117 | 103 | 95.7 | 103 | 102
THP-1 | 99.3 | 103 | 93.4 | 105 | 91.9

CC(=O)Nc1nc(C)c(-c2ccc(Cl)c(S(=O)(=O)NCCO)c2)s1 [PIK93]
Settings | IC50 (cell viability) [nM]
K-562 [4] | 2660
KU-812 [1] | 2690
MV4-11 [3] | 1090
Mono-Mac-6 [5] | 1020
NOMO-1 [2] | 2050

cell viability [%], HL-60 [6]
Settings | 0.001 µM | 0.01 µM | 0.1 µM | 1 µM | 10 µM
co-treatment: AZD3965 100 nM | 102.8 | 103 | 100 | 77.3 | 13.3
co-treatment: DMSO vehicle | 98.3 | 101 | 99.6 | 85.1 | 23.5
co-treatment: GSK2194069 100 nM | 102 | 106 | 103 | 81.7 | 18.2
co-treatment: pictilisib 100 nM | 102 | 107 | 97 | 70.2 | 16.6

cell viability [%]
Settings | 1 nM | 10 nM | 100 nM | 1000 nM | 10000 nM
BV-173 | 119 | 103 | 95.8 | 45.6 | 9.29
HEL | 111 | 94 | 96.8 | 74.5 | 33.1
HL-60 [9] | 119 | 120 | 84.2 | 50.7 | 3.89
K-562 [11] | 134 | 98.9 | 110 | 82.3 | 31.9
KCL-22 | 132 | 99.4 | 100 | 64.2 | 20.7
KG-1 | 93.9 | 106 | 100 | 80.8 | 32.6
KU-812 [7] | 92.6 | 93.9 | 94.7 | 80.1 | 29.2
LAMA-84 | 113 | 95.3 | 102 | 90.6 | 55.8
ML-2 | 106 | 98.8 | 92.6 | 38.3 | 8.96
MOLM-13 | 129 | 111 | 89.9 | 50.2 | 0.72
MV4-11 [10] | 96.3 | 95.7 | 84.5 | 51.1 | 0.217
Mono-Mac-6 [12] | 95.8 | 90.9 | 85.5 | 52.4 | 17.6
NOMO-1 [8] | 101 | 96.7 | 92.7 | 69.1 | 22.9
SHI-1 | 104 | 94.6 | 97.3 | 57.6 | 13.4
THP-1 | 105 | 102 | 112 | 74.7 | 24.5

CO[C@H]1C[C@@H]2CC[C@@H](C)[C@@](O)(O2)C(=O)C(=O)N2CCCC[C@H]2C(=O)O[C@H]([C@H](C)C[C@@H]2CC[C@@H](OC(=O)C(C)(CO)CO)[C@H](OC)C2)CC(=O)[C@H](C)/C=C(\C)[C@@H](O)[C@@H](OC)C(=O)[C@H](C)C[C@H](C)/C=C/C=C/C=C/1C [Temsirolimus]
Settings | IC50 (cell viability) [nM]
K-562 [4] | 5.35
KU-812 [1] | 1.11
MV4-11 [3] | 61.1
Mono-Mac-6 [5] | 4.87
NOMO-1 [2] | 4420

cell viability [%], HL-60 [6]
Settings | 0.001 µM | 0.01 µM | 0.1 µM | 1 µM | 10 µM
co-treatment: AZD3965 100 nM | 99.9 | 97.186 | 101 | 92.3 | 86.7
co-treatment: DMSO vehicle | 101 | 96.3 | 97.65 | 90.3 | 100
co-treatment: GSK2194069 100 nM | 92.3 | 87.52 | 103.1 | 83.261 | 96.5
co-treatment: pictilisib 100 nM | 94.1 | 81 | 99.1 | 81.02 | 91.4

cell viability [%]
Settings | 1 nM | 10 nM | 100 nM | 1000 nM | 10000 nM
BV-173 | 96.5 | 54.8 | 57.6 | 45.7 | 39.5
HEL | 101 | 85.3 | 77.3 | 65.2 | 46.3
HL-60 [9] | 101 | 96.8 | 90 | 73.4 | 73
K-562 [11] | 94.8 | 58.4 | 47.2 | 44.7 | 33.5
KCL-22 | 95.8 | 58.5 | 47.8 | 32.5 | 23.6
KG-1 | 80.8 | 47.2 | 46.5 | 39.2 | 33.6
KU-812 [7] | 71.8 | 42.9 | 44.7 | 38.8 | 36.1
LAMA-84 | 90.6 | 63.2 | 65 | 49.2 | 40.9
ML-2 | 84.3 | 71.5 | 70.4 | 60.3 | 38.2
MOLM-13 | 78.5 | 41.6 | 40.9 | 29.8 | 30.6
MV4-11 [10] | 89.6 | 63.6 | 62.3 | 53.2 | 37.3
Mono-Mac-6 [12] | 99.2 | 49.4 | 48 | 35.1 | 38
NOMO-1 [8] | 79.9 | 67.5 | 76.8 | 60.9 | 52.9
SHI-1 | 93.3 | 71.2 | 80.4 | 58.8 | 59.3
THP-1 | 91.6 | 75 | 76.8 | 57.3 | 55.6
